{"source": "patent US20230355678A1", "about": "“METHODS FOR IMPROVING T CELL EFFICACY” (IMMATICS US, INC., priority 2022, published 2023)", "assay_type_in_all_cases": "cell-based", "key": {"[1]": {"tested_on": "transduced T cells", "test": "Exhaustion / inhibitory receptor (ICI) marker expression of T cell products", "conditions": "Acceptable range ≤% of exhausted cells to control; Table 5 summary grade", "experimental": "The sustained expression of multiple inhibitory receptors may be the hallmark of exhausted T cells. Common to both CD4+ and CD8+ exhausted T cells may be the surface expression of multiple inhibitory receptors, e.g., 2B4, 4-1BB, CD39, CD69, LAG3, PD-1, TIGIT, and TIM3. Expression of these inhibitory receptors in T cell products prepared by Panobinostat treatment at different time was determined. […] Panobinostat treatment on Day 0 increased % PD-1+ cells in T cell products as compared with other treatments and control.\nCD39 may be considered as a marker for exhausted T cells, e.g., CD8+ T cells, in cancer. CD69 is a membrane-bound, type II C-lectin receptor and may be considered as an early marker of lymphocyte activation due to its rapid appearance on the surface of the plasma membrane after stimulation. […] Dasatinib may have little effect on % of terminally differentiated CD39-positive state (CD39+CD69+) and % of CD69+ state in T cell products.\nCommon to both CD4+ and CD8+ exhausted T cells may be the surface expression of multiple inhibitory receptors including 2B4, 4-1BB, CD39, CD69, LAG3, PD-1, TIGIT, and TIM-3."}, "[2]": {"tested_on": "transduced T cells", "test": "Response to Ag exposure (cytokine expression, exhaustion)", "conditions": "Acceptable range ≥Control; Table 5 summary grade", "text": "(§1) On Day 1, the activated CD4/CD8-selected cells were transduced with Lentiviral vectors expressing a target-specific exogenous TCR. On Day 2, the culture media were removed and the transduced cells were fed with fresh media in the absence of Panobinostat, SAHA+IL-21, and AKTi VIII and in the presence of cytokines, for cell expansion. On Day 7-Day 10, cells were harvested and cryopreserved for harvest metrics, phenotypic analysis, and functional studies including Incucyte tumor serial killing assay, cytokine production, and exhaustion analysis. To test the effects of TKi, e.g., dasatinib, on T cell products, dasatinib was added on Day 2 (5 nM) and Day 5 (10 nM) during feeding and expansion."}, "[3]": {"tested_on": "UACC257", "test": "Tumor cell killing by T cell products (Incucyte tumor serial killing assay)", "conditions": "AKTi VIII 250 nM added Day 0 during activation, UACC257-RFP, E:T=3:1, n=3 patients, vs Panobinostat and controls, FIG. 21A", "text": "as §1\nT cell products prepared by activating T cells obtained from three patients (n=3) in the presence of Panobinostat, SAHA+IL-21, or AKTi VIII were compared with regards to tumor killing activity when contacting target cells, e.g., UACC257, which express a report gene encoding red florescent protein (RFP), with E:T=3:1. TCR-positive cells were normalized.\n(n=3 healthy donors; TCR normalized T cells:UACC257-iRFP=3:1)."}, "[4]": {"tested_on": "transduced T cells", "test": "Memory T cell phenotype by flow cytometry", "experimental": "Phenotypes of transduced T cells treated with different HDACi were determined by flow cytometry gated on CD3+CD8+ TCR+ cells. […] No major difference in immune-checkpoint-inhibitor (ICI) marker expression was observed.\nUsing Panobinostat as example, phenotypes of T cell products prepared by Panobinostat treatment on Day 0 (activation), Day 1 (transduction), or Day 2 (feeding) were determined.\nas §1\n(§2) On Day 0, thawed and rested CD4/CD8-selected cells were activated in the presence of anti-CD3/anti-CD28 antibodies. On Day 1, the activated CD4/CD8-selected cells were transduced with Lentiviral vectors expressing a target-specific exogenous TCR and exogenous CD8 molecules. On Day 2, the culture media were removed and the transduced cells were fed with fresh media containing cytokines for cell expansion. Dasatinib was added on Day 2 or on Day 5. On Day 7-Day 10, cells were harvested and cryopreserved for harvest metrics, phenotypic analysis, and functional studies including Incucyte tumor serial killing assay, cytokine production, and exhaustion analysis."}, "[5]": {"tested_on": "transduced T cells", "test": "Fold expansion and manufacturing metrics of T cell products", "experimental": "(DMSO low concentration=low volume=0.00001%; vehicle control for Panobinostat at low concentration (1 nM); DMSO high concentration=high volume=1.5%; vehicle control for valproic acid at high concentration (1.5 mM); all except Na butyrate (water) were dissolved in DMSO)\nas §1, §2"}, "[6]": {"tested_on": "transduced T cells", "test": "Transduction efficiency by flow cytometry gated on CD3+CD8+ TCR+ cells", "conditions": "AKTi VIII 250 nM added Day 0 during activation; vs untreated control; FIG. 19B, 24B", "experimental": "Transduction efficiency of transduced T cells treated with different HDACi were determined by flow cytometry gated on CD3+CD8+ TCR+ cells.\nas §1, §2"}}, "note": "Entries after “also recorded” stand apart in the source; their conditions may differ."}
{"substance": "3-[1-[[4-(7-phenyl-3H-imidazo[4, 5g]quinoxalin-6-yl)phenyl]methyl]piperidin-4-yl]-1H-benzimidazol-2-one [AKTi VIII]", "values": [{"measurement": "Exhaustion phenotype", "setting": "[1]", "value": "="}, {"measurement": "Response to Ag exposure (cytokine expression, exhaustion)", "setting": "[2]", "value": "+/="}, {"measurement": "tumor killing activity", "setting": "[3]", "value": "better tumor killing activity"}, {"measurement": "tumor killing activity", "setting": "[3]; listed as AKTi", "value": "better tumor-killing activity"}, {"measurement": "% of Tcm (CD45RA−CCR7+), Teff (CD45−CCD7−), and TemRA (CD45RA+CCR7-)", "setting": "[4]; AKTi VIII 250 nM added Day 0 during activation, FIG. 20A", "value": "little effect"}, {"measurement": "total number of Tnaive (CD45RA+CCR7+) in T cell products", "setting": "[4]; AKTi VIII 250 nM added Day 0 during activation, vs Panobinostat, SAHA+IL-21 and untreated control, FIG. 20B, 25B", "value": "best total number; also recorded: increased"}, {"measurement": "% Tnaive (CD45RA+CCR7+) in T cell products", "setting": "[4]; AKTi VIII 250 nM added Day 0 during activation, vs untreated control, FIG. 20A, 25A", "value": "increased"}, {"measurement": "expression of Tnaive and Tcm markers (CD27, CD28, CD62L)", "setting": "[4]; AKTi VIII 250 nM added Day 0 during activation, vs untreated control, FIG. 20C", "value": "little effect"}, {"measurement": "% TemRA in T cell products", "setting": "[4]; AKTi VIII 250 nM added Day 0 during activation, vs untreated control, FIG. 25A", "value": "decreased"}, {"measurement": "Memory Phenotype", "setting": "[4]; Acceptable range: Higher % of Tscm, Tcm, lower % of TemRA, improvements in other memory markers (CD62L, CD28, CD27), Table 5 summary grade", "value": "+/="}, {"measurement": "Ranking of T cell products from the most Tnaive and the least TemRA to the least Tnaive and the most TemRA", "setting": "[4]; comparative study, FIG. 25A-B", "value": "dasatinib (5 nM) on Day 2 >dasatinib (10 nM) on Day 5 >AKTi VIII >Panobinostat"}, {"measurement": "fold expansion of T cell products", "setting": "[5]; AKTi VIII 250 nM added Day 0 during activation, vs untreated control, FIG. 19A, 24A", "value": "little effect"}, {"measurement": "manufacturing metrics and phenotype", "setting": "[5]; AKTi-treated cells compared with Panobinostat and SAHA+IL-21 treated cells", "value": "relatively better"}, {"measurement": "% CD8+ TCR+ T cells (transduction efficiency)", "setting": "[6]", "value": "higher"}]}
